Reference: US6262095A, “Use of tricyclic derivatives of 1,4-dihydro-1,4-dioxo-1H-naphthalene, novel compounds obtained and their application in theraphy” (Laboratoire Innothera, priority 1995, dated 2001)
Read-outs that look alike come from different tables or passages of the source.

Key:
[1] = system: hyperpermeability induced by zymosan in rats; assay: Inflammatory hyperpermeability induced by zymosan in rats; format: in vivo, rat (Wistar); conditions: rat, oral
Procedure: The vascular permeability is studied in vivo by measuring the extravasation of albumin, the quantity of which is determined using an albumin-binding dye (Evans blue).
The hyperpermeability is induced by the intradermal injection of a solution of histamine, bradykinin, or zymosan.
The abdominal walls of the rats (Wistar, 200-230 g) are shorn 1 h before the start of the experiment. The product to be tested is injected by the intraperitoneal route or orally 1-4 h before the sacrifice. The rats are anesthetized with a halothane mixture. They then receive an intradermal injection in their abdomen of 0.10 or 0.15 mL (or for histamine 6.7 or […]) of inflammatory agent and an intravenous injection of 1 mL of 0.5% Evans blue solution in the vein of the penis. These injections are carried out 30 min before the sacrificing.
30 min after these two injections, the rats are sacrificed by cervical dislocation.
At the site of the injection of the inflammatory agent, the skin is cut and placed into glass tubes with a ground[-glass] neck containing 3 mL of fuming hydrochloric acid. […] After allowing the preparation to stand for 30 min, 7 mL of dichloromethane are added. The tubes are periodically agitated for 1 h. The aqueous phase is eliminated by aspiration, and the organic "dichloromethane" phase is filtered. The optical densities are quantified by absorption spectrophotometry at a wavelength of 620 nm, against a blank [control] containing only dichloromethane. The averages of the optical densities of the different lots of treated or control animals are calculated, then a percentage of variation of the values corresponding to the treated [experimental] animals compared to those of the control animals is calculated.

[2] = system: saphenous vein in rabbits; assay: Contractile effect on the rabbit saphenous vein precontracted by a depolarizing physiological solution (K+ 40 mM); format: cell-based; conditions: precontracted with 40 mM potassium; for EC50: read-out: ED50 (the source's name)
Procedure: The contractile effects are measured in vitro under static conditions on vascular capacitance or resistance rings of saphenous, femoral, jugular, mesenteric, and caval veins . . . and on femoral, carotid, basilar, or mesenteric arteries, as well as the thoracic or abdominal aorta . . . in rats (Wistar, 200-250 g), rabbits (New Zealand, 2-2.5 kg), guinea pigs (Dunkin Hartley 250-300 g).
The rings are placed in a chamber for isolated organs (25 mL for capacitance vessels and 2.5 mL for resistance vessels according to Mulvany), and maintained under isometric conditions using two rigid threads inserted inside the vessel, avoiding causing damage to the endothelium. The vessels are bathed in a modified Krebs solution (in mM: NaCl=118; KCl=4.6; CaCl2 =2.5; MgSO4 =1.2; KH2 PO4 =1.17; NaHCO3 =25; glucose=11), continuously aerated using a gaseous mixture of 95% O2 and 5% Co2, at a pH=7.4, and regulated by thermostat at 37° C. The rings are adjusted to their optimal point as far as the tension-length relationship is concerned. The tensions developed generate an electrical signal through the intermediary of a force sensor (Wheatstone bridge). […] The pharmacological studies are carried out after a few standardized preliminary contractile stimulations using a depolarizing solution (hyperpotassic type obtained by replacing NaCl with KCl in equimolar quantities), along with rinsings and periods of equilibration in a pure physiological solution. The presence of endothelium is verified by the relaxation induced by increasing the concentration of acetylcholine after the stabilization of a vascular precontraction.
The forces of contraction developed by the vascular rings in response to the different compounds are studied on quiescent or electrically stimulated vessels (5-8 Hz), by a "physiological" depolarizing hyperpotassic solution (KCl: 20, 40 mM), by noradrenaline (increasing concentrations), [and by] serotonin (increasing concentrations).
The contractions are expressed in mg force or as a percentage of the maximum contraction at the time of the depolarization with a "physiological" hyperpotassic solution.
The contractile effect of different compounds on the saphenous vein in rabbits, precontracted by a depolarizing "physiological" solution with a potassium concentration of 40 mM, is given as an illustration; the maximum effect produced by each compound is expressed as a percentage of the maximum contraction induced by depolarizing hyperpotassic solutions and as value of ED50): […]

[3] = system: capillary resistance of rats; assay: Capillary resistance of rats after oral administration (petechial index); format: in vivo, rat (Wistar); conditions: rat
Procedure: The increase in the capillary resistance is evaluated by the modification of the petechial index (negative pressure inducing the extravasation of the erythrocytes), measured by a method derived from the angiosterrometer of Parrot.
The studies are carried out on male Wistar rats with an average weight of 200 g (approximate age six weeks). The bottom area of the back is shorn, then the hair is pulled by means of a paste based on a derivative of thioglycolic acid and calcium hydroxide. After approximately 30 min, the skin is abundantly rinsed and dried.
On the day of the study, the rats are maintained without constraint. A low pressure of 80 mm of mercury is applied. If the petechiae (extravasation of erythrocytes) have not appeared within 15 sec, the low pressure is increased as a countermeasure, keeping the suction cap at the same place.
The minimum low pressure where petechias appear, in mm of mercury, expresses the basal capillary resistance (before any treatment). Two measurements are made for each test at different sites on of the back.
The rats are treated by the oral route. […] All the measurements are done in the blind mode.
A percentage of variation in the capillary resistances of the animals treated compared to their basal capillary resistance is calculated for each compound studied, at each treatment time and compared with the control group (excipient only) or the reference group.

mice = assay: Single oral administration toxicity in mice; format: in vivo, mouse
Source text: Moreover, the compounds of the invention and their possible salts have a very low toxicity.

[4] = Oryctolagus cuniculus, % of maximum contraction induced by hyperpotassic solutions
[5] = 0.1 mg/kg, ** granulometry: 0.6-0.7 mm
[6] = single oral administration of 500 mg/kg

Compound	Zymosan-induced hyperpermeability, effect after 2 h ([1]; 0.1 mg/kg)	Zymosan-induced hyperpermeability, effect after 4 h ([1]; 0.1 mg/kg)	Emax [2, 4] [%]	EC50 ([2]; Oryctolagus cuniculus) [µM]	other results
COc1ccc2c(c1)C(=O)c1sc(-c3ccccc3)nc1C2=O [Example 25, 4,9-Dihydro-4,9-dioxo-7-methoxy-2-phenylnaphtho[2,3-d]thiazole]	-14 % of the control	-17 % of the control	–	–	–
Cc1cccc(-c2nc3c(o2)C(=O)c2ccccc2C3=O)c1 [Example 7, 4,9-Dihydro-4,9-dioxo-2-(3-methylphenyl)-naphtho[2,3-d]oxazole]	–	–	17 ± 2	0.036	–
O=C1c2ccccc2C(=O)c2sc(-n3cccc3)nc21 [Example 28, 4,9-Dihydro-4,9-dioxo-2-(1-pyrrolyl)-naphtho-[2,3]-thiazole]	–	–	29 ± 2	0.037	Increase of capillary resistance, effects after 4 h [3, 5]: 10 % of the control; Increase of capillary resistance, effect after 6 h [3, 5]: 13 % of the control; Zymosan-induced hyperpermeability, effect after 2 h ([1]; 5 mg/kg): -29 % of the control; Zymosan-induced hyperpermeability, effect after 4 h ([1]; 5 mg/kg): 0 % of the control
O=C1c2ccccc2C(=O)c2sc(-c3ccoc3)nc21 [Example 18, 4,9-Dihydro-4,9-dioxo-2-(3-furyl)naphtho[2,3-d]thiazole]	–	–	39 ± 6	0.088	Increase of capillary resistance, effects after 4 h ([3]; 5 mg/kg): 25 % of the control; Increase of capillary resistance, effect after 6 h ([3]; 5 mg/kg): 28 % of the control
O=C1c2ccccc2C(=O)c2sc(-c3ccncc3)nc21.O=S(=O)(O)O [Example 17, 4,9-Dihydro-4,9-dioxo-2-(4-pyridyl)-naphtho[2,3-d]thiazole sulfate]	-15 % of the control	-23 % of the control	–	–	–
O=C1c2ccccc2C(=O)c2oc(-c3ccc(F)cc3)nc21 [Example 5, 4,9-Dihydro-4,9-dioxo-2-(4-fluorophenyl)-naphtho[2,3-d]oxazole]	–	–	–	–	toxic effect and mortality (mice; [6]): no observable toxic effect and no mortality
O=C1c2ccccc2C(=O)c2sc(-c3ccccn3)nc21 [Example k, 4,9-Dihydro-4,9-dioxo-2-(2-pyridyl)-naphtho[2,3-d]thiazole]	–	–	26 ± 9	0.07	–
Cc1ccc(-c2nc3c(s2)C(=O)c2ccccc2C3=O)o1 [Example 38, 4,9-Dihydro-4,9-dioxo-2-(5-methyl-2-furyl)naphtho-[2,3-d]thiazole]	-12 % of the control	-3 % of the control	12 ± 1	0.16	–
Nc1nc2c(s1)C(=O)c1ccccc1C2=O [Example i, 2-Amino-4,9-dihydro-4,9-dioxonaphtho[2,3-d]thiazole]	–	–	18 ± 1	0.09	–
Cc1nc2c(n1C)C(=O)c1ccccc1C2=O.O=S(=O)(O)O [Example 1, 4,9-Dihydro-4,9-dioxo-1,2-dimethyl-1H-naphtho[2,3-d]imidazole sulfate]	–	–	–	–	Increase of capillary resistance, effects after 4 h ([3]; 0.1 mg/kg): 37 % of the control; Increase of capillary resistance, effect after 6 h ([3]; 0.1 mg/kg): 35 % of the control; Zymosan-induced hyperpermeability, effect after 2 h ([1]; 5 mg/kg): -28 % of the control; Zymosan-induced hyperpermeability, effect after 4 h ([1]; 5 mg/kg): -28 % of the control
4,9-Dihydro-4,9-dioxo-2-(2-furyl)-5-hydroxynaphtho-[2,3-d]thiazole or 4,9-Dihydro-4,9-dioxo-2-(2-furyl)-8-hydroxynaphtho-[2,3-d]thiazole [Example 57]	–	–	–	–	Emax (% maximum contraction) ([2]; % of maximum contraction induced by hyperpotassic solutions): 22±3 % maximum contraction; EC50 [2]: 0.041 µM
O=C1c2ccccc2C(=O)c2sc(-c3ccc(F)cc3F)nc21 [Example 15, 2-(2,4-Difluorophenyl)-4,9-dihydro-4,9-dioxo-naphtho[2,3-d]thiazole]	–	–	–	–	Increase of capillary resistance, effects after 4 h ([3]; 0.1 mg/kg): 20 % of the control; Increase of capillary resistance, effect after 6 h ([3]; 0.1 mg/kg): 27 % of the control
Cc1ccccc1-c1nc2c(o1)C(=O)c1ccccc1C2=O [Example 6, 4,9-Dihydro-4,9-dioxo-2-(2-methylphenyl)-naphtho[2,3-d]oxazole]	–	–	–	–	toxic effect and mortality (mice; [6]): no observable toxic effect and no mortality
COc1ccc2c(c1)C(=O)c1sc(-c3ccco3)nc1C2=O [Example 59, 4,9-Dihydro-4,9-dioxo-2-(2-furyl)-7-methoxynaphtho-[2,3-d]thiazole]	-13 % of the control	+21 % of the control	18 ± 4	0.053	–
O=C1c2ccccc2C(=O)c2sc(-c3cccc(F)c3)nc21 [Example 13, 4,9-Dihydro-4,9-dioxo-2-(3-fluorophenyl)-naphtho[2,3-d]thiazole]	–	–	21 ± 3	0.057	toxic effect and mortality (mice; single oral administration, 1 g/kg): no observable toxic effect and no mortality
COc1ccc2c(c1)C(=O)c1nc(-c3ccccc3)sc1C2=O [Example 26, 4,9-Dihydro-4,9-dioxo-6-methoxy-2-phenylnaphtho[2,3-d]thiazole]	-14 % of the control	-24 % of the control	–	–	–
O=C1c2ccccc2C(=O)c2sc(-c3ccc(Cl)o3)nc21 [Example 19, 2-(5-Chloro-furan-2-yl)-4,9-dihydro-4,9-dioxo-naphtho[2,3-d]thiazole]	–	–	20 ± 8	0.075	–
O=C1c2ccccc2C(=O)c2oc(-c3ccc(Cl)cc3)nc21 [Example 10, 2-(4-Chlorophenyl)-4,9-dihydro-4,9-dioxo-naphtho[2,3-d]oxazole]	–	–	–	–	Increase of capillary resistance, effects after 4 h ([3]; 0.1 mg/kg): 25 % of the control; Increase of capillary resistance, effect after 6 h ([3]; 0.1 mg/kg): 46 % of the control
O=C1c2ccccc2C(=O)c2sc(-c3ccc(F)cc3)nc21 [Example 14, 4,9-Dihydro-4,9-dioxo-2-(4-fluorophenyl)naphtho[2,3-d]thiazole]	-31 % of the control	-15 % of the control	–	–	–
O=C1c2ccccc2C(=O)c2[nH]c(-c3ccccc3F)nc21 [Example 2, 4,9-Dihydro-4,9-dioxo-2-(2-fluorophenyl)-1H-naphtho[2,3-d]imidazole]	–	–	–	–	Increase of capillary resistance, effects after 4 h ([3]; 0.1 mg/kg): 25 % of the control; Increase of capillary resistance, effect after 6 h ([3]; 0.1 mg/kg): 28 % of the control
